The values below come from patent US20060252807A1, “Novel ortho-terphenyl inhibitors of p38 kinase and methods of treating inflammatory disorders” (Kalypsys, Inc., priority 2005, published 2006).

In the assay the target is T1, active p38 alpha enzyme (Upstate Biotechnology) (Homo sapiens, UniProt Q16539).
T1 construct: purchased Upstate Biotechnology
Put plainly: p38α biochemical assay (ATP turnover, luminescent detection, Cambrex PKlight). The conditions noted are these: p38α biochemical assay, Table 1 Biological Activity. The gist of the method: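 Measures total ATP turnover by luminescence after human p38α phosphorylates full MapkapK2 protein. Final ATP is 1.4 uM, and incubation runs 2 hours at 30C. The buffer includes 100 mM MgCl2, 4 mM CaCl2 and 1 mg/ml BSA.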

T1 sequence (Q16539 whole entry): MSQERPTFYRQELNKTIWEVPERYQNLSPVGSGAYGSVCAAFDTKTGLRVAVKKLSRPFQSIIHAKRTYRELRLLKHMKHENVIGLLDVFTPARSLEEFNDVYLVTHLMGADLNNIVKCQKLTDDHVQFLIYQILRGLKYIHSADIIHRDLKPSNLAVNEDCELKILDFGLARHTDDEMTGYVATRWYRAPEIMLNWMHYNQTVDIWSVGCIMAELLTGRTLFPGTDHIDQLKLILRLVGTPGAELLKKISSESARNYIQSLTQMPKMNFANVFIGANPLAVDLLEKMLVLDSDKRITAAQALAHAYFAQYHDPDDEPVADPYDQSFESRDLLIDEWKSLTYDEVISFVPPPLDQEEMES

As usually defined, the IC50 is the point on the concentration scale where inhibition reaches its midpoint. Higher therefore signals a need for much substance. Take `CC(C)NC(=O)c1csc(-c2oc(CNC(=O)/C=C/c3ccccc3C(F)(F)F)nc2-c2ccc(F)cc2)n1` [Example 296]: the IC50 is greater than 1000 nM.

The molecule `CCOc1ccc2ccccc2c1C(=O)NCc1nc(-c2ccc(F)cc2)c(-c2nc(C(=O)NC(C)C)cs2)o1` [Example 297] gave an IC50 greater than 1000 nM.

With `CC(C)NC(=O)c1csc(-c2oc(CNC(=O)C(NC(=O)OC(C)(C)C)C(C)C)nc2-c2ccc(F)cc2)n1` (stereo not shown) [Example 298], the IC50 was greater than 1000 nM.

Regarding `CC(C)NC(=O)c1csc(-c2oc(CNC(=O)C(NC(=O)OC(C)(C)C)C(C)C)nc2-c2ccc(F)cc2)n1` (stereo not shown) [Example 299], the IC50 is greater than 1000 nM.

The molecule `CC(C)NC(=O)c1csc(-c2oc(CNC(=O)CCc3cccc(C(F)(F)F)c3)nc2-c2ccc(F)cc2)n1` [Example 300] yielded an IC50 of no more than 1000 nM.

`CC1=NN(c2ccc(C(=O)NCc3nc(-c4ccc(F)cc4)c(-c4nc(C(=O)NC(C)C)cs4)o3)cc2)C(=O)C1` [Example 301] showed an IC50 of no more than 1000 nM.

`Cc1nc(Br)sc1C(=O)NCc1nc(-c2ccc(F)cc2)c(-c2nc(C(=O)NC(C)C)cs2)o1` [Example 302] came in with a concentration for half-maximal inhibition (IC50) of no more than 1000 nM.

On to `CC(C)NC(=O)c1csc(-c2oc(CNC(=O)c3c4ccccc4cc4ccccc34)nc2-c2ccc(F)cc2)n1` [Example 303], for which the half-maximal inhibitory concentration (IC50) was no more than 1000 nM.

Regarding `CC(C)NC(=O)c1csc(-c2oc(CNC(=O)c3cc(C(C)C)cc(C(C)C)c3O)nc2-c2ccc(F)cc2)n1` [Example 304], the IC50 is no more than 1000 nM.

Molecule `CC(=O)NC(Cc1ccc(O)cc1)C(=O)NCc1nc(-c2ccc(F)cc2)c(-c2nc(C(=O)NC(C)C)cs2)o1` (stereo not shown) [Example 305] registered an IC50 of no more than 1000 nM.

With `CC(C)NC(=O)c1csc(-c2oc(CNC(=O)c3c(Cl)cc(Cl)cc3Cl)nc2-c2ccc(F)cc2)n1` [Example 306], the IC50 is no more than 1000 nM.

Regarding `COc1cc(C(=O)NCc2nc(-c3ccc(F)cc3)c(-c3nc(C(=O)NC(C)C)cs3)o2)c([N+](=O)[O-])cc1OC` [Example 307], the IC50 is no more than 1000 nM.

`CC(C)NC(=O)c1csc(-c2oc(CNC(=O)c3ccc(OCc4ccccc4)cc3)nc2-c2ccc(F)cc2)n1` [Example 308] showed a concentration for half-maximal inhibition (IC50) of no more than 1000 nM.

`CC(C)NC(=O)c1csc(-c2oc(CNC(=O)CCc3ccccc3Br)nc2-c2ccc(F)cc2)n1` [Example 309] yielded an IC50 greater than 1000 nM.

For the molecule `CC(C)NC(=O)c1csc(-c2oc(CNC(=O)CCc3cccc(Br)c3)nc2-c2ccc(F)cc2)n1` [Example 310], the IC50 was greater than 1000 nM.

Turning to `CC(C)NC(=O)c1csc(-c2oc(CNC(=O)C3CCCCN3C(=O)OC(C)(C)C)nc2-c2ccc(F)cc2)n1` (stereo not shown) [Example 311], the IC50 was greater than 1000 nM.

On to `CC(C)NC(=O)c1csc(-c2oc(CNC(=O)c3ccc(Oc4cccc(O)c4)cc3)nc2-c2ccc(F)cc2)n1` [Example 312], for which the IC50 was no more than 1000 nM.

Regarding `COc1ccc2cc(C(C)C(=O)NCc3nc(-c4ccc(F)cc4)c(-c4nc(C(=O)NC(C)C)cs4)o3)ccc2c1` (stereo not shown) [Example 313], the IC50 was no more than 1000 nM.

`CC(C)NC(=O)c1csc(-c2oc(CNC(=O)C3CN(C(=O)OC(C)(C)C)CCN3)nc2-c2ccc(F)cc2)n1` (stereo not shown) [Example 314] showed an IC50 of no more than 1000 nM.

For `CC(C)NC(=O)c1csc(-c2oc(CNC(=O)C3CN(C(=O)OC(C)(C)C)CCN3)nc2-c2ccc(F)cc2)n1` (stereo not shown) [Example 315], the 50% inhibitory concentration (IC50) was no more than 1000 nM.

`COc1ccc(Br)c(C(=O)NCc2nc(-c3ccc(F)cc3)c(-c3nc(C(=O)NC(C)C)cs3)o2)c1` [Example 316]: the concentration for half-maximal inhibition (IC50) was no more than 1000 nM.

For the molecule `CC(C)NC(=O)c1csc(-c2oc(CNC(=O)C3CC(O)CN3C(=O)OC(C)(C)C)nc2-c2ccc(F)cc2)n1` (stereo not shown) [Example 317], the IC50 was greater than 1000 nM.

As for `CC(C)NC(=O)c1csc(-c2oc(CNC(=O)C(C(C)C)N(C)C(=O)OC(C)(C)C)nc2-c2ccc(F)cc2)n1` (stereo not shown) [Example 318], the IC50 is greater than 1000 nM.

The molecule `CC(C)NC(=O)c1csc(-c2oc(CNC(=O)c3ccc(C(F)(F)F)cc3[N+](=O)[O-])nc2-c2ccc(F)cc2)n1` [Example 319] showed an IC50 of no more than 1000 nM.

Molecule `CC(C)NC(=O)c1csc(-c2oc(CNC(=O)c3cc(Br)ccc3Cl)nc2-c2ccc(F)cc2)n1` [Example 320] displayed an IC50 of no more than 1000 nM.
